Values of other authors in patent US20120214870A1, “METHODS FOR DIAGNOSIS AND TREATMENT OF CHRONIC FATIGUE SYNDROME” (UNIVERSITY OF SOUTH AUSTRALIA, priority 2009, published 2012).
“Also recorded” adds a separate entry of the source.

Experiments:
CPT-I = details: Yoon et al., 2003; Amengual et al., 2008

SMILES: CC(=O)O[C@H](CC(=O)[O-])C[N+](C)(C)C [C2, acetyl-L-carnitine]
- mental fatigue and attention concentration (CFS patients; supplementation (Vermeulen & Scholte, 2004; Malaguarnera et al. 2008)): significant improvements

SMILES: CCC(=O)O[C@H](CC(=O)[O-])C[N+](C)(C)C [C3, propionyl-L-carnitine]
- general and physical fatigue (CFS patients; administration (Vermeulen & Scholte, 2004)): significant improvements

SMILES: C[N+](C)(C)C[C@H](O)CC(=O)[O-] [LC, L-carnitine]
- CPT-I expression or activity (CPT-I): increase; also recorded: upregulate
- fatigue severity in CFS patients (CFS patients; after 2 months of supplementation (Plioplys and Plioplys, 1997)): significantly reduce

SMILES: CC1=C(/C=C/C(C)=C/C=C/C(C)=C/C(=O)O)C(C)(C)CCC1 [all-trans retinoic acid, reference compound]
- CPT-I expression or activity (CPT-I): upregulate
